These results are taken from patent publication US7772216B2, “Protein kinase and phosphatase inhibitors and methods for designing them” (The Research Foundation of State University of New York, priority 2001, dated 2010).

Broadly, the melting point is the temperature, or range, at which the solid turns liquid. By Ki is commonly meant the dissociation constant of the complex between target and ligand, obtained from inhibition or displacement.

Read-outs that look alike come from different tables or passages of the source.

For one data set, the target named is T1, PTP-1B (Homo sapiens, UniProt P18031).
T1 sequence (P18031 1-435): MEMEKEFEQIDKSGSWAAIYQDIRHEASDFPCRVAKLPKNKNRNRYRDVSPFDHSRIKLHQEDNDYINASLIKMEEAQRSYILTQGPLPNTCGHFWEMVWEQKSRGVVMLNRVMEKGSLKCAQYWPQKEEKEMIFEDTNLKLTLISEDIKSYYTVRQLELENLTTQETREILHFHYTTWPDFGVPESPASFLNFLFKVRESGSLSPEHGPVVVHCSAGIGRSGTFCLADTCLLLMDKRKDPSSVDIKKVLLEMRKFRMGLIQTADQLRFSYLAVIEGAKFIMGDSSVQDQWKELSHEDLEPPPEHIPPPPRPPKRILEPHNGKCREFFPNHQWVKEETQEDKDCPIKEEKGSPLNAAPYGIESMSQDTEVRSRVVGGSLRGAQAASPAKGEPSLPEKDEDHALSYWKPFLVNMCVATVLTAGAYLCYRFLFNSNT
The data set can be described thus: PTP-1B inhibition. The following applies: % inhibition at 10 micromolar compound. It is filed as biochemical. The source says: (§1) Blanks for a particular enzyme indicate that inhibition was not found.

A further data set has as its target EGFRTK (Homo sapiens, UniProt P00533). Briefly: EGFRTK inhibition. The format is biochemical. The following applies: % inhibition at 10 micromolar compound.
From the text: as §1

The target in data set [1] is T2, p56 lck (Homo sapiens, UniProt P06239). Briefly: p56 lck inhibition. It is filed as biochemical. The settings on record: % inhibition at 10 micromolar compound.
T2 sequence (P06239 whole entry, species assumed): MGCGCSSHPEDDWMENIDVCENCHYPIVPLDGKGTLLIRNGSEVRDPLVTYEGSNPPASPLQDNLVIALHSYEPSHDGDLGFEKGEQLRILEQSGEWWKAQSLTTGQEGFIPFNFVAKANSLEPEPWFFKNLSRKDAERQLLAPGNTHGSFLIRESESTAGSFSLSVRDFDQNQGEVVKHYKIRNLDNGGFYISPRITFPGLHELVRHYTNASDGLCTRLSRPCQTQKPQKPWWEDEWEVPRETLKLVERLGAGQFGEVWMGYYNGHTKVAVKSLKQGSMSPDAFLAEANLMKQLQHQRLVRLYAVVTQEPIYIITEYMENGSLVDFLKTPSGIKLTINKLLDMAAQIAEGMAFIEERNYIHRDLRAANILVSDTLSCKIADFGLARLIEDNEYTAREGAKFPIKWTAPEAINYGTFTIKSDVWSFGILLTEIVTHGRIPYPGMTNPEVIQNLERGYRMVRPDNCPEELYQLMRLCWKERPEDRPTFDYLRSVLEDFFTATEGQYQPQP
From the text: as §1

Data set [2] deals with T3, pp60^c-src (Homo sapiens, UniProt P12931). The following applies: literature value, cited from earlier work.
Target sequence in this assay (P12931 whole entry, species assumed): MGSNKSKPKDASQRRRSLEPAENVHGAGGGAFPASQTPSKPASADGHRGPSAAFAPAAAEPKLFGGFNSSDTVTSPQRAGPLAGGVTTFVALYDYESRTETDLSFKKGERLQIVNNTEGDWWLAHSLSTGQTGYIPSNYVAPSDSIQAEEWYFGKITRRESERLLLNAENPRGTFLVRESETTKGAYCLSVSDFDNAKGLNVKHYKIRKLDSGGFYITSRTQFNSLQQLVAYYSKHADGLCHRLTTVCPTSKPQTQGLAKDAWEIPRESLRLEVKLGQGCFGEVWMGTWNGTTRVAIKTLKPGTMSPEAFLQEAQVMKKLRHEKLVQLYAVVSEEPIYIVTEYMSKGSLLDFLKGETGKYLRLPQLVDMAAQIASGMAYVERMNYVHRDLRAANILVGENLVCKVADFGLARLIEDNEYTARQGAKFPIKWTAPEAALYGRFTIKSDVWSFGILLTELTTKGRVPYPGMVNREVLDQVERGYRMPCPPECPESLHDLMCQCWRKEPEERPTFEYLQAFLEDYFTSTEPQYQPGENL
In data set [3] the target is T3, pp60^c-src. The data set can be described thus: Cellular Mimetic Src assay (RR-SRC phosphorylation).
Target sequence in this assay (P12931 whole entry): as the sequence (P12931 whole entry, species assumed) above
Another data set relates to NRK cells. Briefly: Normal rat kidney (NRK) cell growth. It is filed as cell-based. The method, then:
(§2) Active Src inhibitors can be studied in a set of side-by-side cell-based assays using normal rat kidney (NRK) cells and a temperature-sensitive pp60^v-Src transformant of this cell line (LA25). The LA25 transformant engages in anchorage- and serum-independent growth at the “permissive” temperature of 33° C. due to activation of pp60^v-src but not at the “non-permissive” temperature of 40° C. at which pp60^v-src is not activated (Li et al., 1996). The use of this pair of closely related cell lines for testing the Src inhibitors at both the permissive and non-permissive temperatures allows one to determine if a given Src inhibitor is blocking cell growth due to specific blockade of the Src signaling pathway, by a different mechanism or by a general cytotoxic effect.
(§3) As shown in this graph the growth of the LA25 cells at the permissive temperature of 33° C. is inhibited by ca. 50% at a 25 μM concentration of 43-meta relative to the LA25 cell growth at the non-permissive 40° C. as a control. […] Since the 43-meta solutions were prepared with a low concentration of DMSO for solubilization, a DMSO control was also run at the same concentration.

The next data set has as its system LA25 cells. The data set can be described thus: LA25 (ts pp60^v-src transformed NRK) cell growth. The format is cell-based, rat. On the procedure:
as §2, §3

The next data set has as its system PC-3. Briefly: NIH 60-tumor cell panel, PC-3. It is filed as cell-based. The following applies: Homo sapiens, NIH prostate cancer cell line, read-out: growth inhibition IC50, PC-3. The source says:
The initial non-peptide Src inhibitors have also shown very encouraging results in four different series of cell culture assays. 1) In the NIH 60-tumor cell panel assay, broad activity (as one would expect for a Src inhibitor) was seen against the tumor cell lines, including the prostate lines. […] 3) The Src inhibitors were compared to the cancer drugs etoposide, taxol, doxorubicin and cisplatin in ovarian tumors from three different patients and an abdominal carcinoma from another patient. […] 5) Two of the Src inhibitors were also tested for inhibition of ts v-Src stimulated LA25 cell growth. […] 6) Two of the Src inhibitors were also tested for inhibition of normal rat kidney cell growth. The results are shown in FIG. 16D and illustrate that the inhibitors are cytoprotective for normal cells.

For data set [4] the following is noted: SCID, mouse, in vivo, ip.
Description: These compounds were administered to SCID mice by intraperitoneal administration in tween80:EtOH.
For data set [5], the target named is T2, p56 lck. The settings on record: analyzed with the tyrosine kinase p56^lck; cited from earlier work.
Where [6] appears, read: read-out: % Inhibition of 2 mM RR-src at Inhibitor Concentration (100 μM).

Sequence of EGFRTK (P00533 25-1210): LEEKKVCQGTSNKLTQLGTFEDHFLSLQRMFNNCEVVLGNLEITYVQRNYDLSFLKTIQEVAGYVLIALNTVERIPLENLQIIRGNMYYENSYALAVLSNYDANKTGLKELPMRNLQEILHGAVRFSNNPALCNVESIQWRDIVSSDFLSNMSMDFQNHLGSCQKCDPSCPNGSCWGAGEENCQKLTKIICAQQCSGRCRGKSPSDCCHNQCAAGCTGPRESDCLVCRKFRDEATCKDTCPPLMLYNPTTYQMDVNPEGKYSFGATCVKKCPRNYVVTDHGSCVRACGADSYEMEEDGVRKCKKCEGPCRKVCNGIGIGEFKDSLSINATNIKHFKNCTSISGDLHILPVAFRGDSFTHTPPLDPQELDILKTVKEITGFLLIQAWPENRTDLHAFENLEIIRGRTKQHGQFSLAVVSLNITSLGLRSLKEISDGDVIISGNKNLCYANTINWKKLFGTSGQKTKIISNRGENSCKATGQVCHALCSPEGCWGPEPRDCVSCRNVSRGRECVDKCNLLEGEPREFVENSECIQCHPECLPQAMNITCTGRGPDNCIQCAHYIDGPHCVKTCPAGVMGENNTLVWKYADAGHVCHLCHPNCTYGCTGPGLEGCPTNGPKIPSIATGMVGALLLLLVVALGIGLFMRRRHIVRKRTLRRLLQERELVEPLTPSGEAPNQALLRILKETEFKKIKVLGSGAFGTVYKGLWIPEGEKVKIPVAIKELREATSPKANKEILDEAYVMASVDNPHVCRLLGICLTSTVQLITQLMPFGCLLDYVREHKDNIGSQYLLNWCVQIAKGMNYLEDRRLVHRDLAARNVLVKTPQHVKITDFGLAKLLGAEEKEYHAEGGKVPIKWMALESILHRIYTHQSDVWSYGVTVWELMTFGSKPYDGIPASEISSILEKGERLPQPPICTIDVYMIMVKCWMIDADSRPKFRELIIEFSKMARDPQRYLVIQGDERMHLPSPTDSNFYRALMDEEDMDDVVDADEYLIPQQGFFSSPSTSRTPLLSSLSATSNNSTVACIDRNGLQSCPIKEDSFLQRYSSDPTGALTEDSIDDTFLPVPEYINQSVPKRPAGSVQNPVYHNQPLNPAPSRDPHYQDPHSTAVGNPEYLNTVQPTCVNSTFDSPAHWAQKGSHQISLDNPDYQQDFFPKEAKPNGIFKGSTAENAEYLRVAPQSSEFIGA

For `O=C(NCc1ccc(OCc2ccccc2)c(O)c1)c1cc2cc(F)ccc2[nH]1` [Compound 1jjjj], the “PTP-1B @ 10 μm” value on PTP-1B is 15%.

As for `O=C(NCc1cc(O)cc(OCc2ccccc2)c1)c1cc2cc(F)ccc2[nH]1` [Compound 1dddd], on PTP-1B, the “PTP-1B @ 10 μm” value was 16%.

In the case of `O=C(NCc1ccc(F)cc1)c1cc2cc(F)ccc2[nH]1` [Compound 1uuu], the “PTP-1B @ 10 μm” value at PTP-1B was 13%.

For `COc1cc(CNC(=O)c2cc3cc(F)ccc3[nH]2)cc(OC)c1` [Compound 1hhhh], the “PTP-1B @ 10 μm” value on PTP-1B was 17%.

As to `O=C(NCc1cc(C(F)(F)F)ccc1F)c1cc2cc(F)ccc2[nH]1` [Compound 1aaa], the “PTP-1B @ 10 μm” value on PTP-1B worked out at 12%.

With `O=C(Nc1ccccc1CO)c1cc2cc(F)ccc2[nH]1` [Compound 1xxx], at PTP-1B, the “PTP-1B @ 10 μm” value is 12%.

On to `O=C(NCc1cccc(F)c1)c1cc2cc(F)ccc2[nH]1` [Compound 1z], for which the melting point lay in the range of 239 to 241 °C. On EGFRTK, the “EGFRTK @ 10 μm” value amounted to 26%.

As to `O=C(NCc1ccccc1Cl)c1cc2cc(F)ccc2[nH]1` [Compound 1yy], the “PTP-1B @ 10 μm” value at PTP-1B worked out at 10%.

For the molecule `COc1cc(OC)c(CNC(=O)c2cc3cc(F)ccc3[nH]2)c(OC)c1` [Compound 1rr], the “p56 LcK @ 10 μm” value on p56 lck [1] is listed as 12%.

Consider `COc1ccc(NC(=O)c2cc3cc(F)ccc3[nH]2)cc1CO` [Compound 1cccc], for which, at EGFRTK, the “EGFRTK @ 10 μm” value came out at 19%. The “PTP-1B @ 10 μm” value at PTP-1B stood at 20%.

Take `O=C(NCc1ccc(CO)cc1)c1cc2cc(F)ccc2[nH]1` [Compound 1oooo]: the “p56 LcK @ 10 μm” value at p56 lck [1] was 10%. The “EGFRTK @ 10 μm” value at EGFRTK is on record as 33%.

On to `CCOc1cc(/C=C(\C#N)C(N)=O)cc(CSc2ccccc2)c1O` [drawing 65, ST 638, reference compound], for which the IC50 on pp60^c-src [2] (Table V, read-out: Lit. IC50) was 18 µM. Also, the inhibition at 100 µM on pp60^c-src [3] (setting [6]) stood at 37%.

Consider `O=C(Nc1cccc(O)c1)c1cc2cccc(O)c2cc1O` [Compound 45], for which the “inhibition of normal rat kidney (parent non-transformed) cell growth” value in the data set with NRK cells is “without inhibiting the normal growth of the parent non-transformed cells”. In addition, the “inhibition of v-Src induced LA25 cell growth” value with LA25 cells is recorded as “specifically blocked the v-Src induced cell growth”. Besides, the results for the IC50 on pp60^c-src [3] and in the data set with PC-3 were 170 µM and 15 µM, respectively. In addition, at pp60^c-src [3] (increasing ATP concentration up to 1 mM), the “mode of inhibition with respect to ATP” value is recorded as 45 NON-ATP. The inhibition at 100 µM at pp60^c-src [3] (setting [6]) was found to be 51%.

Consider `O=C(Nc1cccc(O)c1)c1cc2ccc(O)cc2cc1O` [Compound 43-meta], for which, in the data set with NRK cells, the “inhibition of normal rat kidney (parent non-transformed) cell growth” value was “without inhibiting the normal growth of the parent non-transformed cells”. The “cell toxicity (basal growth of NRK and LA25 cells)” value with NRK cells (concentration increased up to 400 μM) is recorded as “lack of cell toxicity”. Further, in the data set on LA25 cells, the “inhibition of v-Src induced LA25 cell growth” value is recorded as “specifically blocked the v-Src induced cell growth”. In addition, in the data set on LA25 cells (Rattus norvegicus, NRK, 25 μM, permissive 33° C. relative to non-permissive 40° C.), the inhibition at 25 µM was around 50%. The IC50 in the data set with LA25 cells (Rattus norvegicus, NRK, read-out: IC50 for blocking pp60^v-src stimulated cell proliferation) is around 25 µM; at pp60^c-src [3], 18 µM; with PC-3, 19 µM. For the same molecule, on pp60^c-src [3] (K1, Table V), the Ki worked out at 10 µM. Further, the inhibition at 100 µM on pp60^c-src [3] (setting [6]) came to 89%.

Turning to `O=C(NCc1ccc(Cl)cc1Cl)c1cc2cc(F)ccc2[nH]1` [Compound 1ss], the “PTP-1B @ 10 μm” value on PTP-1B came out at 12%.

Take `CCOc1cc(/C=C(\C#N)C(N)=O)cc(CSc2ccccc2)c1O` [ST-638, reference compound]: the IC50 on pp60^c-src [2] (Table IX, read-out: IC50 (μM), Lit) is 18 µM. For the same molecule, the “% Inhibition at 100 μM (std. dev.)” value on pp60^c-src [3] (Table IX, hydroxynaphthalene derivatives and published inhibitors) is 37 (+/−5) %.

As to `O=C(Nc1cc(O)cc(O)c1)c1cc2cc(F)ccc2[nH]1` [Compound 1r], on p56 lck [1], the “p56 LcK @ 10 μm” value was 11%.

As for `O=C(NCc1cccc(O)c1)c1cc2cc(F)ccc2[nH]1` [Compound 1a], the “toxicity in mice (weight loss)” value in [4] is given as “less toxic in mice than compound 2k from Example 4”.

In the case of `Cc1cc(O)c2c(c1)C(=O)c1cc(O)cc(O)c1C2=O` [Emodin, reference compound], the inhibition at 100 µM on pp60^c-src [3] (read-out: % Inhibition at 100 μM (std. dev.)) is 22%. Further, the “mode of inhibition with respect to ATP” value on p56 lck [5] is “ATP-competitive”.

Consider `O=C(Nc1ccccc1O)c1cc2cc(F)ccc2[nH]1` [Compound 1n], for which the “p56 LcK @ 10 μm” value on p56 lck [1] was 12%.
